In patent publication US8053197B2, “Methods for detecting and treating autoimmune disorders” (Oregon Health & Science University, priority 2004, dated 2011):

Assays:
PBMC = experiment: ELISPOT assay of IL-10 and IFN-γ secreting T cells responding to TCR CDR2 peptides; type: cell-based, human; settings: for IFN-γ response: recognition by MS patients: induced IFN-γ-secreting T cells in all 5 HC; for frequency of IL-10-secreting T cells / frequency of IFN-γ secreting cells: 5 HC donors, single peptide; for response of MS patients compared with HC: expanded panel, 3 MS patients vs 5 HC
Description: FIGS. 13A-13B PBMC from healthy controls (HC) and MS patients respond differentially to TCR CDR2 peptides. A. Production of IL-10 and IFN-gamma was measured in the PBMC response to TCR BV CDR2 peptides (left) and TCR AV CDR2 peptides (right) representing the entire TCR BV and AV gene repertoire as measured by ELISPOT assay. PBMC responses to ConA were equivalent in HC and MS patients (not shown). B. Summary of cytokine-producing cells in which IL-10 or IFN-gamma production was summed for responses to all BV+AV CDR2 peptides. Total cytokine production represents the summation of IL-10-+IFN-gamma-secreting cells for all peptides. *P<0.05 comparing the frequency in HC vs. MS patients. The HC group consisted of five individuals, three females and two males. The MS patient group consisted of three individuals, two females with relapsing, remitting MS, both symptomatic, and one person with secondary, progressive MS.
To determine antigen-specific T cell frequency by ELISPOT, blood mononuclear cells were separated by Ficoll density gradient centrifugation, resuspended in 2% human AB serum, and aliquotted at 0.5 and 0.25 million cells in triplicate wells of nitrocellulose-coated microliter plates (Becton Dickinson, Franklin Lakes, N.J.) pretreated with anti-IFN-γ (Mabtech, Sweden) or anti-IL-10 (PharMingen, San Diego, Calif.) mAb. Peptides, ConA, and medium were added and the plates incubated at 37C for 24 hours (IFN-γ) or 48 hours (IL-10). Biotin-labeled secondary mAb for each cytokine was added, followed by streptavidin-alkaline phosphatase (Dako Corp., Carpinteria, Calif.) and substrate (BCIP/NBT phosphatase substrate, KPL Laboratories, Gaithersburg, Md.) to develop optimal blue staining. Cytokine spots were quantified using an AID Immunospot Analyzer (AID, Cleveland, Ohio) equipped with a high resolution lens camera and analytical software designed for use with the AID system. Mean spots/well were calculated for each Ag, and net counts established after subtraction of background (no Ag). The frequency of Ag-specific spot-forming cells per million PBMC was determined from the average net response observed at two different cell concentrations. The mean net frequency +SEM was calculated for MS patients and HC, and differences compared by Student's t test for significance (p<0.05).
PBMC were removed from plates by washing with 3× with PBS and 3× with PBS/0.05% Tween, pH 7.6. To each well was added 100 μl of either anti-IFN-γ (1 μg/ml, Mabtech, Sweden) or anti-IL-10 (2 μg/ml, PharMingen, San Diego, Calif.) and incubated for 4 hours at room temperature in the dark. Plates were washed 4× with PBS/Tween, then 100 μl per well of alkaline-phosphatase-conjugated streptavidin (DAKO) (1:1000 of stock) was added and plates were incubated for 45 minutes at room temperature. Plates were washed 4× with PBS/Tween and 6× with PBS, 1 minute each. 100 μl of BCIP/NBT substrate (KPL Laboratories, Gaithersburg, Md.) was added and the color reaction was allowed to develop for 3-7 minutes. Plates were rinsed 3× with distilled water and dried overnight at room temperature.
Plates were scanned with an Immunospot Reader (Cellular Technology Limited, Cleveland, Ohio) with optimized lighting conditions and analyzed according to the predetermined parameters of sensitivity, spot size, and background. The background counts were subtracted, and data was then normalized to cytokine secreting cells per million PBMC plated.
To evaluate native recognition of TCR determinants, the frequency of IL-10 and IFN-γ secreting T cells from the blood of 5 HC (3 females, 2 males, average age 28) was assessed using the ELISPOT assay, to detect responses to a comprehensive panel of 113 unique CDR2 peptides representing nearly all of the AV and BV repertoires (Table 1). Only 3 peptides, AV1 S4A1N1T, BV1551 and BV20S1A1N1, could not be tested due to solubility and toxicity problems. […]

[1] = tested on: CD4+CD25+ versus CD4+CD25− populations; experiment: Proliferation of CD4+CD25+ versus CD4+CD25− populations stimulated with TCR peptide pool or control antigens; type: cell-based, human; settings: HC donors with measurable Treg activity
Excerpt: To establish a connection between TCR-reactive T cells and Treg cells, whether TCR reactivity could be found in the CD4+CD25+ Treg cell subpopulation isolated directly from HC was first determined. Thus, CD4+CD25+ versus CD4+CD25− populations were isolated and stimulated with a pool of eight TCR CDR2 peptides that optimally distinguished differences in IL-10 responses between HC and MS patients (designated as Pool #1), or with control antigens, including Copolymer 1, a pool of neuropeptide antigens, and the recall antigen, TT. […] In addition, five treatment-naïve MS patients had no response to Pool #1 peptides in either the CD4+CD25+ or CD4+CD25− fractions and also had no detectable Treg activity. Six MS patients undergoing standard treatment also lacked response to Pool #1 peptides and Treg activity.

Question: With “ALGQGPQFIFQTYEEEERQRG (TCR CDR2 peptide.) [BV5S2]” as the substance, how does the “frequencies of IL-10-secreting PBMC in MS patients versus HC” value (PBMC) read?
Answer: significantly lower

Question: Which “IFN-γ response: recognition by MS patients” value (“IFN-γ response: recognition” below) (PBMC) does the source give for “DLGHGLRLIHYSYGVKDTNKG (TCR CDR2 peptide.) [BV12S2A2T]” here?
Answer: poorly recognized

Question: For “DLGHGLRLIHYSYGVQDTNKG (TCR CDR2 peptide.) [BV12S2A1T]”, which “IFN-γ response: recognition” value (PBMC) is on record?
Answer: poorly recognized

Question: Which “proliferation of CD4+CD25+ compared with CD4+CD25− population” value [1] does the source give for Glatiramer acetate [Cop-1] here?
Answer: no proliferative response above background

Question: With “KHGEAPVFLMILLKGGEQKGH (TCR CDR2 peptide.) [AV29S1A2T]” as the substance, how does the “frequency of IL-10-secreting T cells” value (PBMC) read?
Answer: > 1000 cells/million PBMC

Question: And the “response of MS patients compared with HC” value (PBMC)?
Answer: as well or better than HC

Question: Which results are given for “KLEEELKFLVYFQNEELIQKA (TCR CDR2 peptide.) [BV10S1P]”?
Answer: frequency of IFN-γ secreting cells (PBMC): minimal frequencies; frequency of IL-10-secreting T cells (PBMC): > 2000 cells/million PBMC

Question: “NQNKEFMLLISFQNEQVLQET (TCR CDR2 peptide.) [BV19S1P]” was tested. Which “frequency of IFN-γ secreting cells” value (PBMC) did it give?
Answer: 900 cells/million PBMC

Question: Which “IFN-γ response: recognition” value (PBMC) does the source give for “SSGEMIFLIYQGSYDQQNATE (TCR CDR2 peptide.) [ADV6S1A1N1]” here?
Answer: poorly recognized

Question: How did the “proliferation of CD4+CD25+ compared with CD4+CD25− population” value [1] turn out when TT: the recall antigen, TT was run?
Answer: present mainly in the CD4+CD25− fraction

Question: How did the “response of MS patients compared with HC” value (PBMC) turn out when “YPNQGLQLLLKYTSAATLVKG (TCR CDR2 peptide.) [AV1S2A1N1T]” was run?
Answer: as well or better than HC
